Reference: US20230085307A1, “PYRIDAZINONE COMPOUND AND HERBICIDE” (NISSAN CHEMICAL CORPORATION, priority 2019, published 2023)

Legend:
redroot pigweed [1] = assay: Test Example 4: herbicidal effect by soil treatment (Table 19, symbol N); format: in vivo, redroot pigweed (Amaranthus retroflexus); conditions: amount of applied herbicide 320 g/ha
How it was run: (§1)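 Three weeks of greenhouse growth at 25° C. to 30° C. followed a uniform surface spray of water-diluted emulsion at a predetermined herbicide amount. Seeds had been sown beforehand under about 1.5 cm of sterilized diluvial soil. Grading followed criteria set out in an earlier test.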

chickweed [2] = assay: Test Example 4: herbicidal effect by soil treatment (Table 19, symbol P); format: in vivo, common chickweed (Stellaria media); conditions: amount of applied herbicide 320 g/ha
From the text: (§2) [Test Example 4] Herbicidal Effect Test by Soil Treatment
(§3) Sterilized diluvial soil was placed in a plastic box having a length of 21 cm, a width of 13 cm, and a depth of 7 cm. The seeds of each of southern crabgrass, green foxtail, barnyard grass, wild oat, blackgrass, Italian ryegrass, windgrass, velvetleaf, redroot pigweed, lambsquarters, chickweed, false cleavers, persian speedwell, corn, soybean, rice, wheat, beet, and rapeseed were sowed in a spot-like manner and covered with the soil having a thickness of about 1.5 cm. Subsequently, the emulsion agent of the compound of the present invention prepared according to Formulation Example 2 was diluted with water so as to achieve a predetermined herbicide amount, and the diluted emulsion agent was uniformly applied to the surface of the soil with a small-sized spray. The plastic box was placed in a greenhouse at 25° C. to 30° C. for growth of the plants. Three weeks after the herbicide application, the effect of the herbicide on each plant was evaluated according to the criteria of Test Example 1.

windgrass [3] = assay: Test Example 4: herbicidal effect by soil treatment (Table 19, symbol L); format: in vivo, windgrass (Apera spica-venti); conditions: amount of applied herbicide 320 g/ha
From the text: as §2, §3

Italian ryegrass [4] = assay: Test Example 4: herbicidal effect by soil treatment (Table 19, symbol K); format: in vivo, Italian ryegrass (Lolium multiflorum); conditions: amount of applied herbicide 320 g/ha
From the text: as §2, §3

redroot pigweed [5] = assay: Test Example 5: herbicidal effect by foliage application, plastic box (Table 20, symbol N); format: in vivo, redroot pigweed (Amaranthus retroflexus); conditions: foliage application, evaluated three weeks after application
How it was run: (§4)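 Plants sown in sterilized diluvial soil and grown 14 days in a greenhouse at 25° C to 30° C, then sprayed on the foliage with the compound's emulsion diluted in water to a predetermined herbicide amount. Injury to weeds and crops scored three weeks after application on a visual rating scale.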

southern crabgrass [6] = assay: Test Example 4: herbicidal effect by soil treatment (Table 19, symbol F); format: in vivo, southern crabgrass (Digitaria ciliaris); conditions: amount of applied herbicide 320 g/ha
How it was run: as §1

green foxtail [7] = assay: Test Example 5: herbicidal effect by foliage application, plastic box (Table 20, symbol G); format: in vivo, green foxtail (Setaria viridis); conditions: foliage application, evaluated three weeks after application
How it was run: as §4

Chinese sprangletop = assay: Test Example 3: herbicidal effect by foliage application, Wagner pot (Table 18, symbol D); format: in vivo, chinese sprangletop (Leptochloa chinensis); conditions: amount of applied herbicide 320 g/ha
How it was run: (§5)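 Plants were sown in alluvial soil held under 0.1–0.5 cm standing water and grown 14 days in a greenhouse at 25–30 °C. An emulsifiable formulation, water-diluted to the set dose, was then sprayed onto the foliage, and effects were scored three weeks later using previously defined criteria.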

lambsquarters [8] = assay: Test Example 5: herbicidal effect by foliage application, plastic box (Table 20, symbol O); format: in vivo, lambsquarters (Chenopodium album); conditions: foliage application, evaluated three weeks after application
How it was run: as §4

barnyard grass [9] = assay: Test Example 3: herbicidal effect by foliage application, Wagner pot (Table 18, symbol H); format: in vivo, barnyard grass (Echinochloa crus-galli); conditions: amount of applied herbicide 320 g/ha
How it was run: as §5

wild oat [10] = assay: Test Example 5: herbicidal effect by foliage application, plastic box (Table 20, symbol I); format: in vivo, wild oat (Avena fatua); conditions: foliage application, evaluated three weeks after application
How it was run: as §4

blackgrass [11] = assay: Test Example 4: herbicidal effect by soil treatment (Table 19, symbol J); format: in vivo, blackgrass (Alopecurus myosuroides); conditions: amount of applied herbicide 320 g/ha
How it was run: as §1

chickweed [12] = assay: Test Example 5: herbicidal effect by foliage application, plastic box (Table 20, symbol P); format: in vivo, common chickweed (Stellaria media); conditions: foliage application, evaluated three weeks after application
How it was run: as §4

velvetleaf [13] = assay: Test Example 4: herbicidal effect by soil treatment (Table 19, symbol M); format: in vivo, velvetleaf (Abutilon theophrasti); conditions: amount of applied herbicide 320 g/ha
How it was run: as §1

windgrass [14] = assay: Test Example 5: herbicidal effect by foliage application, plastic box (Table 20, symbol L); format: in vivo, windgrass (Apera spica-venti); conditions: foliage application, evaluated three weeks after application
How it was run: as §4

barnyard grass [15] = assay: Test Example 4: herbicidal effect by soil treatment (Table 19, symbol H); format: in vivo, barnyard grass (Echinochloa crus-galli); conditions: amount of applied herbicide 320 g/ha
How it was run: as §1

rice flat sedge = assay: Test Example 3: herbicidal effect by foliage application, Wagner pot (Table 18, symbol E); format: in vivo, rice flat sedge (Cyperus iria); conditions: amount of applied herbicide 320 g/ha
How it was run: as §5

wild oat [16] = assay: Test Example 4: herbicidal effect by soil treatment (Table 19, symbol I); format: in vivo, wild oat (Avena fatua); conditions: amount of applied herbicide 320 g/ha
How it was run: as §1

green foxtail [17] = assay: Test Example 4: herbicidal effect by soil treatment (Table 19, symbol G); format: in vivo, green foxtail (Setaria viridis); conditions: amount of applied herbicide 320 g/ha
How it was run: as §1

lambsquarters [18] = assay: Test Example 4: herbicidal effect by soil treatment (Table 19, symbol O); format: in vivo, lambsquarters (Chenopodium album); conditions: amount of applied herbicide 320 g/ha
How it was run: as §1

velvetleaf [19] = assay: Test Example 5: herbicidal effect by foliage application, plastic box (Table 20, symbol M); format: in vivo, velvetleaf (Abutilon theophrasti); conditions: foliage application, evaluated three weeks after application
How it was run: as §4

blackgrass [20] = assay: Test Example 5: herbicidal effect by foliage application, plastic box (Table 20, symbol J); format: in vivo, blackgrass (Alopecurus myosuroides); conditions: foliage application, evaluated three weeks after application
How it was run: as §4

persian speedwell = assay: Test Example 5: herbicidal effect by foliage application, plastic box (Table 20, symbol R); format: in vivo, Persian speedwell (Veronica persica); conditions: foliage application, evaluated three weeks after application
How it was run: as §4

Italian ryegrass [21] = assay: Test Example 5: herbicidal effect by foliage application, plastic box (Table 20, symbol K); format: in vivo, Italian ryegrass (Lolium multiflorum); conditions: foliage application, evaluated three weeks after application
How it was run: as §4

southern crabgrass [22] = assay: Test Example 5: herbicidal effect by foliage application, plastic box (Table 20, symbol F); format: in vivo, southern crabgrass (Digitaria ciliaris); conditions: foliage application, evaluated three weeks after application
How it was run: as §4

barnyard grass [23] = assay: Test Example 5: herbicidal effect by foliage application, plastic box (Table 20, symbol H); format: in vivo, barnyard grass (Echinochloa crus-galli); conditions: foliage application, evaluated three weeks after application
How it was run: as §4

## COc1ccc(-c2sc3ccc(Cl)cc3c2-c2c(O)c(C)nn(C)c2=O)cc1C [2-119]
Redroot pigweed [1]
  N: redroot pigweed, herbicidal effect rating: 0 (Herbicidal rate of 5% or less (almost no effect))
Chickweed [2]
  P: chickweed, herbicidal effect rating: 0 (Herbicidal rate of 5% or less (almost no effect))
Windgrass [3]
  L: windgrass, herbicidal effect rating: 0 (Herbicidal rate of 5% or less (almost no effect))
Italian ryegrass [4]
  K: Italian ryegrass, herbicidal effect rating: 0 (Herbicidal rate of 5% or less (almost no effect))
Redroot pigweed [5]; 320 g/ha
  herbicidal effect on N: redroot pigweed: 0 (Herbicidal rate of 5% or less (almost no effect))
Southern crabgrass [6]
  F: southern crabgrass, herbicidal effect rating: 0 (Herbicidal rate of 5% or less (almost no effect))
Green foxtail [7]; 320 g/ha
  herbicidal effect on G: green foxtail: 0 (Herbicidal rate of 5% or less (almost no effect))
Chinese sprangletop
  herbicidal effect on D: Chinese sprangletop: 2 (Herbicidal rate of 20% or more and less than 40%)
Lambsquarters [8]; 320 g/ha
  herbicidal effect on O: lambsquarters: 3 (Herbicidal rate of 40% or more and less than 70%)
Barnyard grass [9]
  herbicidal effect on H: barnyard grass: 3 (Herbicidal rate of 40% or more and less than 70%)
Wild oat [10]; 320 g/ha
  herbicidal effect on I: wild oat: 0 (Herbicidal rate of 5% or less (almost no effect))
Blackgrass [11]
  J: blackgrass, herbicidal effect rating: 0 (Herbicidal rate of 5% or less (almost no effect))
Chickweed [12]; 320 g/ha
  herbicidal effect on P: chickweed: 1 (Herbicidal rate of 5% or more and less than 20%)
Velvetleaf [13]
  M: velvetleaf, herbicidal effect rating: 0 (Herbicidal rate of 5% or less (almost no effect))
Windgrass [14]; 320 g/ha
  herbicidal effect on L: windgrass: 0 (Herbicidal rate of 5% or less (almost no effect))
Barnyard grass [15]
  H: barnyard grass, herbicidal effect rating: 0 (Herbicidal rate of 5% or less (almost no effect))
Rice flat sedge
  herbicidal effect on E: rice flat sedge: 3 (Herbicidal rate of 40% or more and less than 70%)
Wild oat [16]
  I: wild oat, herbicidal effect rating: 0 (Herbicidal rate of 5% or less (almost no effect))
Green foxtail [17]
  G: green foxtail, herbicidal effect rating: 0 (Herbicidal rate of 5% or less (almost no effect))
Lambsquarters [18]
  O: lambsquarters, herbicidal effect rating: 2 (Herbicidal rate of 20% or more and less than 40%)
Velvetleaf [19]; 320 g/ha
  herbicidal effect on M: velvetleaf: 3 (Herbicidal rate of 40% or more and less than 70%)
Blackgrass [20]; 320 g/ha
  herbicidal effect on J: blackgrass: 3 (Herbicidal rate of 40% or more and less than 70%)
Persian speedwell; 320 g/ha
  herbicidal effect on R: persian speedwell: 3 (Herbicidal rate of 40% or more and less than 70%)
Italian ryegrass [21]; 320 g/ha
  herbicidal effect on K: Italian ryegrass: 0 (Herbicidal rate of 5% or less (almost no effect))
Southern crabgrass [22]; 320 g/ha
  herbicidal effect on F: southern crabgrass: 0 (Herbicidal rate of 5% or less (almost no effect))
Barnyard grass [23]; 320 g/ha
  herbicidal effect on H: barnyard grass: 1 (Herbicidal rate of 5% or more and less than 20%)

## COCCSc1ccc(-c2sc3ccc(F)cc3c2-c2c(O)c(C)nn(C)c2=O)cc1 [2-265]
Redroot pigweed [1]
  herbicidal effect on N: redroot pigweed: 5 (Herbicidal rate of 90% or more (almost completely withered))
Chickweed [2]
  herbicidal effect on P: chickweed: 0 (Herbicidal rate of 5% or less (almost no effect))
Windgrass [3]
  herbicidal effect on L: windgrass: 0 (Herbicidal rate of 5% or less (almost no effect))
Italian ryegrass [4]
  herbicidal effect on K: Italian ryegrass: 0 (Herbicidal rate of 5% or less (almost no effect))
Redroot pigweed [5]; AAH 320 g/ha
  N: redroot pigweed, herbicidal effect (criteria 0-5): 5 (Herbicidal rate of 90% or more (almost completely withered))
Southern crabgrass [6]
  herbicidal effect on F: southern crabgrass: 3 (Herbicidal rate of 40% or more and less than 70%)
Green foxtail [7]; AAH 320 g/ha
  G: green foxtail, herbicidal effect (criteria 0-5): 5 (Herbicidal rate of 90% or more (almost completely withered))
Chinese sprangletop
  herbicidal effect on D: Chinese sprangletop: 4 (Herbicidal rate of 70% or more and less than 90%)
Lambsquarters [8]; AAH 320 g/ha
  O: lambsquarters, herbicidal effect (criteria 0-5): 4 (Herbicidal rate of 70% or more and less than 90%)
Barnyard grass [9]
  herbicidal effect on H: barnyard grass: 5 (Herbicidal rate of 90% or more (almost completely withered))
Wild oat [10]; AAH 320 g/ha
  I: wild oat, herbicidal effect (criteria 0-5): 3 (Herbicidal rate of 40% or more and less than 70%)
Blackgrass [11]
  herbicidal effect on J: blackgrass: 0 (Herbicidal rate of 5% or less (almost no effect))
Chickweed [12]; AAH 320 g/ha
  P: chickweed, herbicidal effect (criteria 0-5): 5 (Herbicidal rate of 90% or more (almost completely withered))
Velvetleaf [13]
  herbicidal effect on M: velvetleaf: 3 (Herbicidal rate of 40% or more and less than 70%)
Windgrass [14]; AAH 320 g/ha
  L: windgrass, herbicidal effect (criteria 0-5): 0 (Herbicidal rate of 5% or less (almost no effect))
Barnyard grass [15]
  herbicidal effect on H: barnyard grass: 2 (Herbicidal rate of 20% or more and less than 40%)
Rice flat sedge
  herbicidal effect on E: rice flat sedge: 5 (Herbicidal rate of 90% or more (almost completely withered))
Wild oat [16]
  herbicidal effect on I: wild oat: 0 (Herbicidal rate of 5% or less (almost no effect))
Green foxtail [17]
  herbicidal effect on G: green foxtail: 4 (Herbicidal rate of 70% or more and less than 90%)
Lambsquarters [18]
  herbicidal effect on O: lambsquarters: 4 (Herbicidal rate of 70% or more and less than 90%)
Velvetleaf [19]; AAH 320 g/ha
  M: velvetleaf, herbicidal effect (criteria 0-5): 5 (Herbicidal rate of 90% or more (almost completely withered))
Blackgrass [20]; AAH 320 g/ha
  J: blackgrass, herbicidal effect (criteria 0-5): 0 (Herbicidal rate of 5% or less (almost no effect))
Persian speedwell; AAH 320 g/ha
  R: persian speedwell, herbicidal effect (criteria 0-5): 5 (Herbicidal rate of 90% or more (almost completely withered))
Italian ryegrass [21]; AAH 320 g/ha
  K: Italian ryegrass, herbicidal effect (criteria 0-5): 2 (Herbicidal rate of 20% or more and less than 40%)
Southern crabgrass [22]; AAH 320 g/ha
  F: southern crabgrass, herbicidal effect (criteria 0-5): 4 (Herbicidal rate of 70% or more and less than 90%)
Barnyard grass [23]; AAH 320 g/ha
  H: barnyard grass, herbicidal effect (criteria 0-5): 4 (Herbicidal rate of 70% or more and less than 90%)
